Data taken from ChEMBL document CHEMBL2074191, “Electrophysiological characteristics of the proton-coupled peptide transporter PEPT2 cloned from rat brain” (Am J Physiol, 1998).
Values belong to the molecule of their own block, whether it stands above or below them. Residues, ends and D or L forms follow the SMILES beside them.

How the values were obtained:
Type in all cases: functional, cell-based
[1] = target: T1, Solute carrier family 15 member 2 (Rattus norvegicus) (UniProt Q63424); assay: TP_TRANSPORTER: inhibition of Gly-Sar uptake (Gly-Sar: 30 uM, Ala-Glu: 500 uM) in PEPT2-expressing SK-N-SH cells
T1 sequence (whole entry): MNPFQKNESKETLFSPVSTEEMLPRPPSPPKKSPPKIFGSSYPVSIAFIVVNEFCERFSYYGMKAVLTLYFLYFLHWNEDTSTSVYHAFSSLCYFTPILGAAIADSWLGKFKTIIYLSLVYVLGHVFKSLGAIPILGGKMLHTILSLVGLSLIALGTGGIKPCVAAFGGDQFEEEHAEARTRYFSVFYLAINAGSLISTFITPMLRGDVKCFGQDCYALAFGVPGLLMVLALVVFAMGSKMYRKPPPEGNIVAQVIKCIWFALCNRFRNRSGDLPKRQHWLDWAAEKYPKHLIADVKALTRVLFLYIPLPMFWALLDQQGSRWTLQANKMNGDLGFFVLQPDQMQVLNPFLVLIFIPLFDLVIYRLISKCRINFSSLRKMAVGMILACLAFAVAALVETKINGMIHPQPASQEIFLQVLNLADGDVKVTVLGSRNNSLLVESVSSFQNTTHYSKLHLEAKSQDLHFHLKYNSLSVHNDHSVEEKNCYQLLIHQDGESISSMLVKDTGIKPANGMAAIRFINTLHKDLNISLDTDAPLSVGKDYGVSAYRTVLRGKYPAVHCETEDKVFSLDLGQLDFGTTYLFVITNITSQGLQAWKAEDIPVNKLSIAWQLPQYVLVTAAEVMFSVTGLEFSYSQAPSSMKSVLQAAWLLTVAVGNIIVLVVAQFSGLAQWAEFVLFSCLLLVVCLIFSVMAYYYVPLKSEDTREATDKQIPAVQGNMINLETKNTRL

[2] = target: T1, Solute carrier family 15 member 2 (Rattus norvegicus); assay: TP_TRANSPORTER: inhibition of Gly-Sar uptake (Gly-Sar: 30 uM, Ala-Lys: 500 uM) in PEPT2-expressing SK-N-SH cells
[3] = target: T1, Solute carrier family 15 member 2 (Rattus norvegicus); assay: TP_TRANSPORTER: inhibition of Gly-Sar uptake (Gly-Sar: 30 uM, Ala-Val: 500 uM) in PEPT2-expressing SK-N-SH cells
[4] = target: T1, Solute carrier family 15 member 2 (Rattus norvegicus); assay: (§1) TP_TRANSPORTER: uptake in PEPT2-expressing HeLa cells
[5] = target: T2, Solute carrier family 15 member 2 (Rattus norvegicus, UniProt Q63424); assay: TP_TRANSPORTER: inhibition of Gly-Sar uptake (Gly-Sar: 10 uM) in PEPT2-expressing SK-N-SH cells
T2 sequence (Q63424 whole entry): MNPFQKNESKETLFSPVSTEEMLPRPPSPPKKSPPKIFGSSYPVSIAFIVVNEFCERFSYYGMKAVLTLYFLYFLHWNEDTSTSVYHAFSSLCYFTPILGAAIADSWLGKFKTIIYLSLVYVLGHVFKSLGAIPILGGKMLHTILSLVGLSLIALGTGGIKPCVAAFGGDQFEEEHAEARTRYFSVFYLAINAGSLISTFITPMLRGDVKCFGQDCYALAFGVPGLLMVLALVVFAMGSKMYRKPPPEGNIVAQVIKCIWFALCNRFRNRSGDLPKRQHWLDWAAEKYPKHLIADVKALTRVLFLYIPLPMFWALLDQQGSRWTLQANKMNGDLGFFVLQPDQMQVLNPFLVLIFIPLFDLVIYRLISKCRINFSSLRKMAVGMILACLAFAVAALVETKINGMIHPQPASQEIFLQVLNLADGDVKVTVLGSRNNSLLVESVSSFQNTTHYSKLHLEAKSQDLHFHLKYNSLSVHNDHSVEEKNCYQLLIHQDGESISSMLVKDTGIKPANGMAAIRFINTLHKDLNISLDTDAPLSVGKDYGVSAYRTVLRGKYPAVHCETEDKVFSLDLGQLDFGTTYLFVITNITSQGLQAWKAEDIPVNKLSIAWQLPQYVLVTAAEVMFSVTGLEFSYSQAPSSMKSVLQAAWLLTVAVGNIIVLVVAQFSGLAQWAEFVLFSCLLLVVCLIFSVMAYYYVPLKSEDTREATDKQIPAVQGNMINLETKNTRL

[6] = substrate: CN(CC(=O)O)C(=O)CN; assay: as §1

Molecule: C[C@H](N)C(=O)N[C@@H](CCCCN)C(=O)O (H-Ala-Lys-OH)
Activity [2]: inhibitor [+]

Molecule: NCC(=O)N1CCC[C@H]1C(=O)O (H-Gly-Pro-OH)
Activity [4]: substrate [+]

Molecule: CC(=O)N[C@@H](CC(=O)O)C(=O)N[C@@H](CCC(=O)O)C(=O)O [ISOSPAGLUMIC ACID] (Ac-Asp-Glu-OH)
IC50 [5]: 3 mM

B1: Solute carrier family 15 member 2 (Rattus norvegicus), Q63424 (protein)
chain: MNPFQKNESKETLFSPVSTEEMLPRPPSPPKKSPPKIFGSSYPVSIAFIVVNEFCERFSYYGMKAVLTLYFLYFLHWNEDTSTSVYHAFSSLCYFTPILGAAIADSWLGKFKTIIYLSLVYVLGHVFKSLGAIPILGGKMLHTILSLVGLSLIALGTGGIKPCVAAFGGDQFEEEHAEARTRYFSVFYLAINAGSLISTFITPMLRGDVKCFGQDCYALAFGVPGLLMVLALVVFAMGSKMYRKPPPEGNIVAQVIKCIWFALCNRFRNRSGDLPKRQHWLDWAAEKYPKHLIADVKALTRVLFLYIPLPMFWALLDQQGSRWTLQANKMNGDLGFFVLQPDQMQVLNPFLVLIFIPLFDLVIYRLISKCRINFSSLRKMAVGMILACLAFAVAALVETKINGMIHPQPASQEIFLQVLNLADGDVKVTVLGSRNNSLLVESVSSFQNTTHYSKLHLEAKSQDLHFHLKYNSLSVHNDHSVEEKNCYQLLIHQDGESISSMLVKDTGIKPANGMAAIRFINTLHKDLNISLDTDAPLSVGKDYGVSAYRTVLRGKYPAVHCETEDKVFSLDLGQLDFGTTYLFVITNITSQGLQAWKAEDIPVNKLSIAWQLPQYVLVTAAEVMFSVTGLEFSYSQAPSSMKSVLQAAWLLTVAVGNIIVLVVAQFSGLAQWAEFVLFSCLLLVVCLIFSVMAYYYVPLKSEDTREATDKQIPAVQGNMINLETKNTRL
Km [6]: 35 µM

Now from value to molecule:

Activity [1]: inhibitor [+]
Molecule: C[C@H](N)C(=O)N[C@@H](CCC(=O)O)C(=O)O (H-Ala-Glu-OH)

Activity [3]: inhibitor [+]
Molecule: CC(C)[C@H](NC(=O)[C@H](C)N)C(=O)O (H-Ala-Val-OH)

Activity [4]: substrate [+]
Molecule: NCC(=O)NCC(=O)O (H-Gly-Gly-OH)

Activity [4]: substrate [+]
Molecule: NCC(=O)N[C@@H](Cc1ccccc1)C(=O)O (H-Gly-Phe-OH)
